Source: PubChem BioAssay (NCI)
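The compound was tested at five concentrations on cells cultured in 96-well plates, with a 48-hour exposure period. The concentration for 50% growth inhibition is given as GI50. The concentration for full growth arrest is given as TGI.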

How the values were obtained:
Assay in all cases: NCI tumour cell line growth inhibition, 48 h
786-0 renal = tested on: 786-0 renal
A498 renal = tested on: A498 renal
A549 NSCLC = tested on: A549 NSCLC
ACHN renal = tested on: ACHN renal
BT-549 breast = tested on: BT-549 breast
CCRF-CEM leukemia = tested on: CCRF-CEM leukemia
DU-145 prostate = tested on: DU-145 prostate
EKVX NSCLC = tested on: EKVX NSCLC
HCC-2998 colon = tested on: HCC-2998 colon
HCT-116 colon = tested on: HCT-116 colon
HL-60(TB) leukemia = tested on: HL-60(TB) leukemia
HOP-62 NSCLC = tested on: HOP-62 NSCLC
HOP-92 NSCLC = tested on: HOP-92 NSCLC
HS 578T breast = tested on: HS 578T breast
HT29 colon = tested on: HT29 colon
IGROV1 ovarian = tested on: IGROV1 ovarian
K-562 leukemia = tested on: K-562 leukemia
KM12 colon = tested on: KM12 colon
M14 melanoma = tested on: M14 melanoma
MALME-3M melanoma = tested on: MALME-3M melanoma
MCF7 breast = tested on: MCF7 breast
MDA-MB-231 breast = tested on: MDA-MB-231 breast
MDA-MB-435 = tested on: MDA-MB-435
MOLT-4 leukemia = tested on: MOLT-4 leukemia
NCI-H226 lung = tested on: NCI-H226 lung
NCI-H23 lung = tested on: NCI-H23 lung
NCI-H460 lung = tested on: NCI-H460 lung
NCI-H522 lung = tested on: NCI-H522 lung
NCI/ADR-RES ovarian = tested on: NCI/ADR-RES ovarian
OVCAR-3 ovarian = tested on: OVCAR-3 ovarian
OVCAR-4 ovarian = tested on: OVCAR-4 ovarian
OVCAR-5 ovarian = tested on: OVCAR-5 ovarian
OVCAR-8 ovarian = tested on: OVCAR-8 ovarian
PC-3 prostate = tested on: PC-3 prostate
RPMI-8226 leukemia = tested on: RPMI-8226 leukemia
SF-268 CNS = tested on: SF-268 CNS
SF-539 CNS = tested on: SF-539 CNS
SK-MEL-2 melanoma = tested on: SK-MEL-2 melanoma
SK-MEL-28 melanoma = tested on: SK-MEL-28 melanoma
SK-MEL-5 melanoma = tested on: SK-MEL-5 melanoma
SK-OV-3 ovarian = tested on: SK-OV-3 ovarian
SN12C renal = tested on: SN12C renal
SNB-19 CNS = tested on: SNB-19 CNS
SNB-75 CNS = tested on: SNB-75 CNS
SR leukemia = tested on: SR leukemia
SW-620 colon = tested on: SW-620 colon
T-47D breast = tested on: T-47D breast
TK-10 renal = tested on: TK-10 renal
U251 CNS = tested on: U251 CNS
UACC-257 melanoma = tested on: UACC-257 melanoma
UACC-62 melanoma = tested on: UACC-62 melanoma
UO-31 renal = tested on: UO-31 renal

CCOC(=O)Nc1ccc(-c2nc(-c3cccc(OCCN4CCOCC4)c3)c(-c3ccnc(Br)c3)[nH]2)cc1
GI50 (786-0 renal): 1.6 µM | TGI (786-0 renal): 4.12 µM | GI50 (A498 renal): 1.66 µM | TGI (A498 renal): 5.66 µM | GI50 (A549 NSCLC): 3.47 µM | TGI (A549 NSCLC): > 100 µM | GI50 (ACHN renal): 3.06 µM | TGI (ACHN renal): > 100 µM | GI50 (BT-549 breast): 2.9 µM | TGI (BT-549 breast): > 100 µM | GI50 (CCRF-CEM leukemia): 2.94 µM | TGI (CCRF-CEM leukemia): > 100 µM | GI50 (DU-145 prostate): 4.05 µM | TGI (DU-145 prostate): > 100 µM | GI50 (EKVX NSCLC): 3.2 µM | TGI (EKVX NSCLC): > 100 µM | GI50 (HCC-2998 colon): 2.28 µM | TGI (HCC-2998 colon): 6.11 µM | GI50 (HCT-116 colon): 2.98 µM | TGI (HCT-116 colon): > 100 µM | GI50 (HL-60(TB) leukemia): 2.15 µM | TGI (HL-60(TB) leukemia): 5.39 µM | GI50 (HOP-62 NSCLC): 3.1 µM | TGI (HOP-62 NSCLC): > 100 µM | GI50 (HOP-92 NSCLC): 2.77 µM | TGI (HOP-92 NSCLC): 7.79 µM | GI50 (HS 578T breast): 1.55 µM | TGI (HS 578T breast): 4.91 µM | GI50 (HT29 colon): 2.9 µM | TGI (HT29 colon): > 100 µM | GI50 (IGROV1 ovarian): 3.65 µM | TGI (IGROV1 ovarian): > 100 µM | GI50 (K-562 leukemia): 2.53 µM | TGI (K-562 leukemia): > 100 µM | GI50 (KM12 colon): 3.19 µM | TGI (KM12 colon): > 100 µM | GI50 (M14 melanoma): 2.97 µM | TGI (M14 melanoma): 13.7 µM | GI50 (MALME-3M melanoma): 1.6 µM | TGI (MALME-3M melanoma): 3.46 µM | GI50 (MCF7 breast): 1.62 µM | TGI (MCF7 breast): 4.27 µM | GI50 (MDA-MB-231 breast): 3.79 µM | TGI (MDA-MB-231 breast): > 100 µM | GI50 (MDA-MB-435): 3.07 µM | TGI (MDA-MB-435): 47.6 µM | GI50 (MOLT-4 leukemia): 2.23 µM | TGI (MOLT-4 leukemia): > 100 µM | GI50 (NCI-H226 lung): 3.18 µM | TGI (NCI-H226 lung): > 100 µM | GI50 (NCI-H23 lung): 2.19 µM | TGI (NCI-H23 lung): 5.6 µM | GI50 (NCI-H460 lung): 3.32 µM | TGI (NCI-H460 lung): > 100 µM | GI50 (NCI-H522 lung): 3.31 µM | TGI (NCI-H522 lung): > 100 µM | GI50 (NCI/ADR-RES ovarian): 3.39 µM | TGI (NCI/ADR-RES ovarian): > 100 µM | GI50 (OVCAR-3 ovarian): 4.3 µM | TGI (OVCAR-3 ovarian): > 100 µM | GI50 (OVCAR-4 ovarian): 4.36 µM | TGI (OVCAR-4 ovarian): > 100 µM | GI50 (OVCAR-5 ovarian): 5.11 µM | TGI (OVCAR-5 ovarian): > 100 µM | GI50 (OVCAR-8 ovarian): 3.73 µM | TGI (OVCAR-8 ovarian): > 100 µM | GI50 (PC-3 prostate): 2.87 µM | TGI (PC-3 prostate): > 100 µM | GI50 (RPMI-8226 leukemia): 1.07 µM | TGI (RPMI-8226 leukemia): 3.78 µM | GI50 (SF-268 CNS): 4.55 µM | TGI (SF-268 CNS): > 100 µM | GI50 (SF-539 CNS): 2.08 µM | TGI (SF-539 CNS): 7.48 µM | GI50 (SK-MEL-2 melanoma): 2.41 µM | TGI (SK-MEL-2 melanoma): 6.07 µM | GI50 (SK-MEL-28 melanoma): 1.78 µM | TGI (SK-MEL-28 melanoma): 3.75 µM | GI50 (SK-MEL-5 melanoma): 1.74 µM | TGI (SK-MEL-5 melanoma): 3.15 µM | GI50 (SK-OV-3 ovarian): 2.66 µM | TGI (SK-OV-3 ovarian): 6.25 µM | GI50 (SN12C renal): 3.77 µM | TGI (SN12C renal): > 100 µM | GI50 (SNB-19 CNS): 3.81 µM | TGI (SNB-19 CNS): > 100 µM | GI50 (SNB-75 CNS): 1.34 µM | TGI (SNB-75 CNS): 6.91 µM | GI50 (SR leukemia): 2.74 µM | TGI (SR leukemia): > 100 µM | GI50 (SW-620 colon): 3.42 µM | TGI (SW-620 colon): > 100 µM | GI50 (T-47D breast): 2.74 µM | TGI (T-47D breast): > 100 µM | GI50 (TK-10 renal): 4.26 µM | TGI (TK-10 renal): > 100 µM | GI50 (U251 CNS): 2.75 µM | TGI (U251 CNS): > 100 µM | GI50 (UACC-257 melanoma): 2.21 µM | TGI (UACC-257 melanoma): 5.24 µM | GI50 (UACC-62 melanoma): 2.26 µM | TGI (UACC-62 melanoma): 7.14 µM | GI50 (UO-31 renal): 2.72 µM | TGI (UO-31 renal): > 100 µM
